Test results taken from patent US20190069548A1, “AGENT FOR CONTROLLING THRIPS AND USE THEREOF” (RIKEN, priority 2016, published 2019).

What was measured:
Format in all cases: in vivo
[1] = tested on: Frankliniella occidentalis; assay: Two-plant choice test of thrips repellency after spraying (Examples 1 and 2); settings: for repellency against thrips (number of thrips on plant vs water control): 100 μM solution sprayed; for repellency against thrips (number of thrips on plant vs water control) / repellency against Frankliniella occidentalis: thrips released two days after, counted 24 h later; for repellency against Frankliniella occidentalis: 100 μM PDJ sprayed
Protocol: Then, 100 μM PDJ solution was directly sprayed on one of the two plant individuals by use of a spraying device. On the other one of the two plant individuals, only water was sprayed similarly. This plant individual on which only water was sprayed was a control. Two days after the above treatment, 30 female adult thrips of Frankliniella occidentalis were released at a middle point between the two plant individuals. Twenty-four hours after that release of Frankliniella occidentalis, the number of thrips on each plant individual was counted so that which one of the plant individuals the thrips had moved to was found. With use of 100 μM JA solution, a similar experiment was carried out. Further, similar experiments with use of the 100 μM PDJ solution and the 100 μM JA solution were carried out on tomato (Solanum lycopersicum) three weeks after seeding.
(§1) Then, 100 μM PDJ solution was sprayed on an entire aerial part of only one of the two plant individuals by use of a spraying device. On the other one of the two plant individuals, only water was sprayed by a similar method. This plant individual on which only water was sprayed was a control. Two days after the above spraying, 30 female adult thrips of Frankliniella occidentalis were released at a middle point between the two plant individuals. Twenty-four hours after that release of Frankliniella occidentalis, the number of thrips on each plant individual was counted so that which one of the plant individuals the thrips had moved to was found.
Further, the target plant was changed to crown daisy (Glebionis coronaria) of the family Asteraceae, and repellency against thrips was studied similarly.

[2] = tested on: Frankliniella occidentalis; assay: Spraying time relative to development of fourth true leaf of tomato, thrips count (Examples 6 and 7); settings: counted six days after release
Protocol: Then, 100 μM PDJ solution was sprayed on an entire aerial part of only one of the two plant individuals by use of a spraying device. On the other one of the two plant individuals, only water was sprayed by a similar method. This plant individual on which only water was sprayed was a control. The above spraying was carried out at time points 3 days, 7 days, 10 days and 15 days after the start of development of the fourth true leaf. Four days after the above spraying, 30 female adult thrips of Frankliniella occidentalis were released at a middle point between the two plant individuals. Six days after that release of Frankliniella occidentalis, the number of thrips on the fourth true leaf was counted. […] The number of thrips attached to the fourth true leaf was approximately 5% of that of the control in the case of the spraying carried out at the time point 3 days after the start of the development of the fourth true leaf, approximately 10% of that of the control in the case of the spraying carried out at the time point 7 days after the start of the development, approximately 40% of that of the control in the case of the spraying carried out at the time point 10 days after the start of the development, and approximately 50% of that of the control in the case of the spraying carried out at the time point 15 days after the start of the development. In this way, it was clarified that in a case where the spraying was carried out within 7 days from the start of development of a new leaf of a plant, repellency against thrips given to the plant is higher than that in a case where spraying is carried out more than 7 days after the start of the development. In a greenhouse whose room temperature was kept in a range of 20° C. to 25° C., two plant individuals of tomato (Solanum lycopersicum) (approximately 1 to 1.5 months after seeding), which had developed 3 true leaves, were placed apart from each other such that a distance of […] was provided and kept between these plant individuals. Then, 100 μM PDJ solution was sprayed on an entire aerial part of only one of the two plant individuals by use of a spraying device. At this time point, the fourth true leaf was not yet developed. On the other one of the two plant individuals, only water was sprayed by a similar method. This plant individual on which only water was sprayed was a control. Four days after the above spraying, 30 female adult thrips of Frankliniella occidentalis were released at a middle point between the two plant individuals. Six days after that release of Frankliniella occidentalis, the number of thrips on the fourth true leaf was counted. […] The number of thrips attached to the fourth true leaf was approximately 100% of that of the control.

[3] = tested on: Frankliniella occidentalis; assay: Repeated spraying on tomato, thrips count on third and higher-order true leaves (Example 5); settings: counted forty days after release
Protocol: Then, 100 μM PDJ solution was directly prayed on an entire aerial part of only one of the two plant individuals by use of a spraying device. The above spraying was carried out 3 times, 4 times or 5 times at intervals of 5 to 7 days. On the other one of the two plant individuals, only water was sprayed by a similar method. This plant individual on which only water was sprayed was a control. Four days after the last spraying, 30 female adult thrips of Frankliniella occidentalis were released at a middle point between the two plant individuals. Forty days after that release of Frankliniella occidentalis, the number of thrips on the third and higher-order true leaves was counted. […] In the case of the plant individual on which the PDJ solution was sprayed 3 times, the total number of thrips attached to the third and higher-order true leaves was approximately 20% relative to that of the control. In the case of the plant individual on which the PDJ solution was sprayed 4 times or 5 times, the total number of thrips attached to the third and higher-order true leaves was 0% relative to that of the control. In this way, it was clarified that in a case where spraying is carried out 4 times or 5 times at intervals of 5 days to 7 days, repellency against thrips is higher than that in a case where spraying is carried out 3 times.

Frankliniella intonsa = assay: Two-plant choice test of thrips repellency after spraying (Example 4); settings: 100 μM PDJ sprayed, thrips released two days after, counted 24 h later
Protocol: as §1, with “intonsa” for “occidentalis”, “intonsa,” for “occidentalis,”

Thrips tabaci Lindeman = assay: Two-plant choice test of thrips repellency after spraying (Example 3); settings: 100 μM PDJ sprayed, thrips released two days after, counted 24 h later
Protocol: Then, 100 μM PDJ was sprayed on an entire aerial part of only one of the two plant individuals by use of a spraying device. On the other one of the two plant individuals, only water was sprayed by a similar method. This plant individual on which only water was sprayed was a control. Two days after the above spraying, 30 female adult thrips of Thrips tabaci Lindeman were released at a middle point between the two plant individuals. Twenty-four hours later, the number of Thrips tabaci Lindeman on each plant individual was counted so that which one of the plant individuals the thrips had moved to was found. As a result, with regard to the green pepper (bell pepper) (Capsicum annuum L. ‘grossum’), an attachment rate of Thrips tabaci Lindeman was approximately 40% relative to that of the control. Meanwhile, with regard to cabbage (Brassica oleracea var. capitata), an attachment rate of Thrips tabaci Lindeman was approximately 40% relative to that of the control.

[4] = 100 μM PDJ sprayed when fourth true leaf was not yet developed (Example 7)

CC/C=C\CC1C(=O)CCC1CC(=O)OC (stereo not shown) [JA, methyl jasmonate, reference compound]
repellency against thrips (number of thrips on plant vs water control) ([1]; Arabidopsis thaliana): can give repellency against thrips
repellency against thrips (number of thrips on plant vs water control) ([1]; tomato (Example 1)): can give repellency against thrips

prohydrojasmon [PDJ]
number of thrips attached to the fourth true leaf, of that of the control ([2]; 100 μM PDJ sprayed 3 days after start of development of fourth true leaf): approximately 5%
number of thrips attached to the fourth true leaf, of that of the control ([2]; 100 μM PDJ sprayed 7 days after start of development of fourth true leaf): approximately 10%
number of thrips attached to the fourth true leaf, of that of the control ([2]; 100 μM PDJ sprayed 10 days after start of development of fourth true leaf): approximately 40%
number of thrips attached to the fourth true leaf, of that of the control ([2]; 100 μM PDJ sprayed 15 days after start of development of fourth true leaf): approximately 50%
number of thrips attached to the fourth true leaf, of that of the control [2, 4]: approximately 100%
total number of thrips attached to the first to third true leaves vs control [2, 4]: much smaller than that of the control
total number of thrips attached to the third and higher-order true leaves relative to that of the control ([3]; 100 μM PDJ sprayed 3 times at intervals of 5 to 7 days): approximately 20%
total number of thrips attached to the third and higher-order true leaves relative to that of the control ([3]; 100 μM PDJ sprayed 4 times at intervals of 5 to 7 days): 0%
total number of thrips attached to the third and higher-order true leaves relative to that of the control ([3]; 100 μM PDJ sprayed 5 times at intervals of 5 to 7 days): 0%
repellency against Frankliniella intonsa (Frankliniella intonsa; cabbage): sufficient repellency
repellency against Frankliniella intonsa (Frankliniella intonsa; chrysanthemum): sufficient repellency
repellency against Frankliniella intonsa (Frankliniella intonsa; cucumber): sufficient repellency
repellency against Frankliniella intonsa (Frankliniella intonsa; green pepper): sufficient repellency
repellency against Frankliniella intonsa (Frankliniella intonsa; strawberry): sufficient repellency
repellency against Frankliniella intonsa (Frankliniella intonsa; tomato): sufficient repellency
repellency against thrips (number of thrips on plant vs water control) ([1]; Arabidopsis thaliana): can give repellency against thrips
repellency against Frankliniella occidentalis ([1]; cabbage): sufficient repellency
repellency against Frankliniella occidentalis ([1]; chrysanthemum): sufficient repellency
repellency against thrips ([1]; crown daisy (Glebionis coronaria), studied similarly to Example 2): repellency against thrips is given
repellency against Frankliniella occidentalis ([1]; cucumber): sufficient repellency
repellency against Frankliniella occidentalis ([1]; green pepper): sufficient repellency
repellency against Frankliniella occidentalis ([1]; strawberry): sufficient repellency
repellency against thrips (number of thrips on plant vs water control) ([1]; tomato (Example 1)): can give repellency against thrips
repellency against Frankliniella occidentalis ([1]; tomato (Example 2)): sufficient repellency
attachment rate of Thrips tabaci Lindeman relative to that of the control (Thrips tabaci Lindeman; cabbage): approximately 40%
attachment rate of Thrips tabaci Lindeman relative to that of the control (Thrips tabaci Lindeman; green pepper): approximately 40%
